Key:
[1] = well known in the art; cited from earlier work
[2] = test system: human colon cancer Colo-205 cells; assay: MTT assay of cell growth, Colo-205; type: cell-based; conditions: for concentration at which significant growth inhibition was observed: Colo-205, day 2 and day 3, MTT, vs vehicle controls; for concentration at which complete growth inhibition was observed: Colo-205, days 1-3, MTT
Protocol: (§1) Two human colon cancer cell lines, Colo-205 (ATCC accession No. CCL-222) and HT-29 (ATCC accession No. HTB-38), were used in this study. Cells were treated with 0.2, 0.76, 1.52, 7.62, 15.24, 22.87, 30.49, 38.11, 45.73 or 53.35 μM 10-HCPT or CPT-11 for 1-3 days, and the relative number of the viable cells was determined by MTT assay as described below.
(§2) Cells were seeded in a 24-well cell culture cluster (Costar, Cambridge, Mass.) at a density of 1×10^6 cells per mL and cultured overnight prior to drug treatment. After 10-HCPT or CPT-11 treatment for 3 days, the medium was discarded and replaced with an equal volume (0.5 mL) of fresh medium containing 0.456 mg/mL 3-[4,5-dimethylthiazol-2-yl]-2,5-diphenyl-tetrazolium bromide (MTT; Sigma Chemical Company) and incubated for 2 hours at 37° C. in the dark. The medium was discarded, and cells were then combined with […] dimethyl sulfoxide (Sigma Chemical Company) to dissolve the formazan produced. Cell viability was determined according to the calorimetric comparison by reading optical density (OD) values from a microplate reader (Spectra Max 250; Spectra Diode Laboratories, CA) at an absorption wavelength of 570 nm.

[3] = test system: human colon cancer HT-29 cells; assay: MTT assay of cell growth, HT-29; type: cell-based; conditions: HT-29, days 1-3, MTT
Protocol: as §1, §2

Colo-205 cells [4] = assay: Viable cell number by trypan blue exclusion assay; type: cell-based, human; conditions: 5, 10, 15 or 20 nM, 24 to 120 hr, vs untreated cells
Protocol: To investigate the effect of 10-HCPT on the growth of Colo-205 cell line, the cells were treated with a series of dosages of 10-HCPT and harvested at different time points. The cell numbers were determined by trypan blue exclusion assay as described below.
Colo-205 cells (5×10^5) were seeded in 25T flasks overnight and then treated without (control) and with 5, 10, 15, or 20 nM of 10-HCPT, respectively. After treatment for 24 to 120 hr, cells were harvested by trypsin-EDTA and then centrifuged at 1500 rpm for 5 min at 4° C. The cell pellet was resuspended in culture medium containing 0.04% trypan blue and the viable cells were enumerated by a hemocytometer.

human Hep G2 cells = conditions: cited from earlier work
[5] = cited from earlier work
Colo-205 xenografts = assay: In vivo antiproliferation, Colo-205 xenografts in BALB/c-nu mice; conditions: for tumor volume at day 24: control 300.5±22.3
Protocol: We further examined whether 10-HCPT is effective in growth suppression in vivo after tumor formation. Colo-205 cells were transplanted into BALB/c-nu mice, and when the tumors were palpable (3-5 mm), the mice were treated either with vehicle control or 10-HCPT.
The in vivo experiment was carried out with ethical committee approval and met the standards required by the Guiding Principles in the Use of Animals in Toxicology, which were adopted by the Society of Toxicology in 1989. The BALB/c-nu mice were obtained from National Laboratory Animal Center of National Applied Research Laboratories (Taipei, Taiwan) and housed in a laminar flow room under sterilized conditions with the temperature being maintained at 25±2° C. and the light controlled at 12 h light and 12 h dark cycle. The Colo 205 cells were harvested and resuspended in serum free RPMI-1640 medium. Cells were adjusted to 1×10^7 cells/mL, and transplanted subcutaneously on the flank regions of the mice. Each experimental group included six to seven mice bearing tumors.
(§3) 10-HCPT was dissolved in propylene glycol and treatment began when the tumor size reached 3-5 mm. 10-HCPT was administered via p.o. once per two or four days at doses of 1-7.5 mg/kg (volume of injection: 0.1 mL/20 g of body weight), respectively. The control group received propylene glycol vehicle once per two days. Tumor size and body weight were monitored twice a week throughout the experiment. The tumor size was measured using a vernier caliper. Tumor volume (V) was calculated according to the formula: V (mm^3)=0.4AB^2, where A and B are the longest diameter and the shortest diameter, respectively. At the end of experiment, all mice were sacrificed by CO2 gas. Tumors, livers, kidneys, and lungs were collected, fixed, embedded and stained with hematoxylin and eosin for pathological analysis.

[6] = test system: caspases (IETD-pNA and LEHD-pNA substrates); assay: IETD-pNA and LEHD-pNA cleavage in cell lysates; type: cell-based, human; conditions: Colo-205 cells
histone H1 and H3 = conditions: murine hepatoma cells; cited from earlier work
[7] = Toxicity in xenograft-bearing nude mice (body weight, pathology); type: in vivo
Protocol: as §3

caspase-3 = assay: DEVD-pNA cleavage activity (Caspase-3 Colorimetric Assay Kit); type: cell-based, human; conditions: Colo-205 lysates, 48 hrs treatment, vs drug-free control
Protocol: In addition, to further determine whether caspases participate in the propagation of apoptosis induced by 10-HCPT in Colo-205 cells, cell lysates from drug-treated cells were analyzed for the cleavage of the p-nitroaniline-tagged peptides N-Acetyl-Asp-Glu-Val-Aps-pNA (DEVD-pNA), which represent preferential substrates for caspase-3. Caspase activation leads to the release of pNA that can be monitored by absorbance measurements at 405 nm using a plate reader. Specifically, DEVD-pNA cleavage activity was measured using Caspase-3 Colorimetric Assay Kit (BioVision) according to the recommended protocols. 3×10^6 of 10-HCPT treated cells were harvested, resuspended in 50 μl of chilled cell lysis buffer and incubated on ice for 10 min before centrifugation (12,000 rpm for 3 min at 4° C.). The supernatant was collected and the total protein concentration of the supernatant was determined by Dc protein assay kit (Bio-Rad). Each assay reaction containing 100 μg of cell lysates, 50 μl of 2× reaction buffer supplemented with 10 mM DTT, and 5 μl of the 4 mM of DEVD-pNA (200 μM final concentration) was carried out at 37° C. for 1 hr. The formation of p-nitroanilide was detected at 405 nm in a microtiter plate reader.

[8] = test system: cell cycle regulatory proteins in Colo-205 cells; assay: Western blotting of cell cycle regulatory proteins; type: cell-based, human; conditions: Colo-205, 3 μM, 48 hr
Source text: The progression of the cell cycle is promoted by various CDKs binding with their respective cyclin partners and inhibited by CDK inhibitors such as p21 and p27. In general, CDK2 in association with cyclin E regulates the G1/S transition, and CDK1 in concert with type-A and -B cyclins controls the G2/M transition. Both cell cycle inhibitory proteins p21 and p27 block cell cycle progression at the G1/S as well as the G2/M transitions of cell cycle. […] To confirm this speculation, we analyzed the expressions of several cell cycle regulatory proteins by means of Western blotting assay as described below.
Colo-205 cells were cultured in Dulbecco's modified Eagle Medium (DMEM) supplemented with 10% fetal bovine serum (FBS) at 37° C. in a 5% CO2 atmosphere. Cells were seeded in 6-well plate and incubated with 3 μM of 10-HCPT. After 48 hr, the treated cells were washed twice with phosphate-buffered saline (PBS), flash frozen in liquid nitrogen, and stored at −80° C. The harvested cells were lysed in ice-cold report lysis buffer (Promega). After cleaning the resulted lysates by centrifugation, protein in the clear lysate was quantified by Dc protein assay kit (Bio-Rad). 15 μg of lysate protein were resolved by 10% SDS-PAGE, transferred onto a polyvinylidene difluoride membrane (PVDF membrane, Amersham Biosciences), and immunoblotted with antibodies against followed cellular proteins: DNA topoisomerase I, p53, p27, phosphorylated p27 (Santa Cruz Biotechnology), cyclin E, CDK2 (BD Pharningen), PCNA, p21 (Upstate), and α-tubulin (Sigma). Protein content was visualized with BM Chemiluminescence Blotting Kit (Roche Molecular Biochemicals). The blots were exposed to X-ray film (Fuji) for various times.

Colo-205 cells [9] = assay: Cell cycle distribution by propidium iodide staining and flow cytometry; type: cell-based, human; conditions: various concentrations, 48 hrs
Protocol: We further investigated if the suppression of cell growth induced by 10-HCPT on Colo-205 was due to either cell cycle arrest or cell death. The Colo-205 cells were treated with various concentrations of 10-HCPT for 48 hrs and analyzed by propidium iodide staining and flow cytometry as described below.
After treatment with 10-HCPT, cells were trypsinized and resuspended in 70% ethanol. The cells were incubated on ice for at least 1 hr and resuspended in 1 mL of cell cycle assay buffer (0.38 mM sodium citrate, 0.5 mg/mL RNase A, and 0.01 mg/mL propidium iodide) at a concentration of 5×10^5 cells/mL. Samples were stored in the dark at 4° C. until cell cycle analysis, which was carried out by use of a flow cytometer and ModFit LT 2.0 software (Verity Software, Topsham, Me.).
A FACScan flow cytometer (Becton Dickinson, Bedford, Mass.) equipped with a 488-nm argon laser was used for analysis of cellular function by flow cytometry. Forward and side scatters were used to establish size gates and exclude cellular debris from the analysis. The excitation wavelength was set at 488 nm. The observation wavelength of 530 nm was chosen for green fluorescence and 585 nm for red fluorescence and the intensities of emitted fluorescence were collected on FL1 and FL2 channels, respectively. In each measurement, a minimum of 20,000 cells was analyzed. Data were acquired and analyzed using the Cell Quest software (Becton Dickinson). Relative change in the mean fluorescence intensity was calculated as the ratio between mean fluorescence intensity in the channel of the treated cells and that of the control.

Colo-205 cells [10] = assay: DNA fragmentation assay; type: cell-based, human; conditions: various concentrations, 48 hrs, 1.5% agarose gel
Source text: Because apoptosis always takes place as a consequence of a cell cycle block, it is possible that 10-HCPT is able to cause cell death through apoptosis pathway. To verify this possibility, we first performed DNA fragmentation assay since DNA fragmentation is one characteristic of apoptosis.
The DNA of Colo-205 cells treated with various concentrations of 10-HCPT for 48 hrs was extracted and analyzed by 1.5% native agarose gel electrophoresis.

[11] = previous pharmacokinetic studies

Compound: CC[C@@]1(O)C(=O)OCc2c1cc1n(c2=O)Cc2cc3c(CN(C)C)c(O)ccc3nc2-1 [topotecan]
- water-solubility [1]: better water-solubility than CPT

Compound: irinotecan [CPT-11]
- concentration at which significant growth inhibition was observed [2]: 22.87 µM
- concentration at which complete growth inhibition was observed [2]: 38.11 µM
- water-solubility [1]: better water-solubility than CPT
- concentration at which complete growth inhibition was observed [3]: 45.73 µM

Compound: CC[C@@]1(O)C(=O)OCc2c1cc1n(c2=O)Cc2cc3cc(O)ccc3nc2-1 [10-HCPT, 10-hydroxy-camptothecin]
- concentration at which significant growth inhibition was observed [2]: 0.2 µM
- concentration at which complete growth inhibition was observed [2]: 1 µM
- effect on cell number increase (Colo-205 cells [4]): suppression of cell number increasing in dose-dependent manner
- effect on differentiation (human Hep G2 cells): differentiation inducing effect
- toxicity with i.v. administration ([5]; i.v.): Dose-dependent toxicity was observed
- distribution half-life [5, 11]: short
- elimination half-life [5, 11]: prolonged
- tumor volume at day 24 (Colo-205 xenografts; 2.5 mg/kg/2 days p.o., P<0.01): 85.9±12.3 mm^3
- tumor volume at day 24 (Colo-205 xenografts; 2.5 mg/kg/4 days p.o.): 273.1±33.7 mm^3
- tumor volume at day 24 (Colo-205 xenografts; 5 mg/kg/2 days p.o., P<0.01): 60.8±15.4 mm^3
- tumor volume at day 24 (Colo-205 xenografts; 5 mg/kg/4 days p.o., p<0.05): 228.9±45.3 mm^3
- tumor volume at day 24 (Colo-205 xenografts; 7.5 mg/kg/2 days p.o., P<0.01): 7.2±2.8 mm^3
- tumor volume at day 24 (Colo-205 xenografts; 7.5 mg/kg/4 days p.o., p<0.05): 182.9±43.9 mm^3
- tumor growth suppression (Colo-205 xenografts; oral, 2.5-7.5 mg/kg/2 days, nude mouse xenografts): obviously observed
- caspase activation with IETD-pNA substrate [6]: only stimulated little caspase activations
- caspase activation with LEHD-pNA substrate [6]: only stimulated little caspase activations
- effect on phosphorylation of histone H1 and H3 (histone H1 and H3): inhibitory effect
- average body weight ([7]; 7.5 mg/kg/2 days-treated group, end of study): slightly recovered
- acute toxicity ([7]; 1-7.5 mg/kg, p.o., once per two or four days, nude mice): no obvious acute toxicity
- body weight ([7]; all treated groups except the 7.5 mg/kg/2 days-treated group): No significant reduction in body weight
- tissue damage in liver, lung and kidney ([7]; tissue slices stained with hematoxylin and eosin): no tissue damage was observed
- absorbance with the DEVD-pNA substrate (caspase-3): clearly elevated
- concentration at which complete growth inhibition was observed [3]: 0.5 µM
- CDK2 expression [8]: increasing expression
- PCNA protein level [8]: no effect
- amount of p27 [8]: decreasing amount
- cdc25c expression [8]: enhanced
- cyclin B1 expression [8]: enhanced
- cyclin E expression [8]: increasing expression
- p21 protein level [8]: dramatically increased
- cell populations in G0/G1 phase (Colo-205 cells [9]): decreasing
- cell populations in G2/M phase (Colo-205 cells [9]): induced dramatically the increasing
- population in sub G0/G1 phase (Colo-205 cells [9]): increasing population
- S phase of cell cycle (Colo-205 cells [9]; vs untreated): no significant differences
- DNA ladders (Colo-205 cells [10]): DNA ladders were detected

Compound: CC[C@@]1(O)C(=O)OCc2c1cc1n(c2=O)Cc2cc3ccccc3nc2-1 [CPT, Camptothecin]
- water-solubility [1]: water-insoluble

Reference: US20080039485A1, “LOW-DOSE-LONG-TERM PHARMACEUTICAL COMPOSITION COMPRISING CAMPTOTHECIN DERIVATIVES FOR THE TREATMENT OF CANCERS” (TARGETGEN BIOTECHNOLOGY CO., LTD., priority 2006, published 2008)
